Results taken from US20010035503A1, “Method and apparatus for non-invasive detection of angiogenic and anti-angiogenic activity in living tissue” (priority 2000, published 2001).

Experiments:
[1] = test system: C3H murine mammary carcinoma; assay: anti-vascular effects by combined LDF and NIRS measurements in mice with tumor transplants; type: in vivo; details: for LDF: difference between post- and pre-treatment as percent of pre-treatment value; for LDF / NIRS* / pO2 after treatment % < 5 mm Hg: median, N = 3; for LDF / NIRS* / pO2 after treatment median / pO2 after treatment % < 5 mm Hg: i.p.: FAA 150, CA4B 250, DMX-AA 20, HDZ 5 mg/kg; for tumor blood perfusion estimated by LDF / hemoglobin concentration: in words; for hemoglobin concentration: from NIRS; for NIRS*: reflectance (1/absorbance), increase = decrease in hemoglobin concentration, post- minus pre-treatment as percent of pre-treatment; for pO2 after treatment median: tumor pO2, N = 3; for pO2 after treatment % < 5 mm Hg: tumor pO2 values below 5 mm Hg
Description: Anti-vascular effects on C3H murine mammary carcinoma were determined by combined LDF and NIRS measurements, in mice with tumor transplants using the apparatus shown in FIG. 9.
The three agents DMX-AA, FAA and CA4B are antivascular agents, which by various mechanisms cause collapse of tumor vasculature and consequently a decrease in tumor blood flow and oxygenation. Hydralazine (HDZ) is a well known anti-hypertensive agent that causes peripheral vasodilatation, i.e. a drop in vascular flow resistance leading to an acute decrease in tumor perfusion (a.k.a. the “steal effect”), because of the lack of autoregulation of tumor vessels. Numbers in the table represent differences between post-and pre-treatment measurements expressed as percent of the pre-treatment value. Number of experiments per drug=3.

[2] = test system: bFGF induced angiogenic response; assay: anti-angiogenic activity in bFGF stimulated animals, LDF and NIRS recordings; type: in vivo, mouse
Description: (§1) The apparatus as shown on FIG. 9 was tested in a mouse model with a controlled angiogenic response induced by local application of an angiogenic agent, basic fibroblast growth factor (bFGF). Parallel experiments were performed with identical setup in order to correlate the sensitivity of near infrared spectroscopy (NIRS) compared to laser doppler flowmetry (LDF) for estimation of angiogenic and anti-angiogenic responses.
(§2) A slow release pellet (Innovative Res.) containing 100 micrograms of bFGF released at a constant rate over 10 days was implanted under the skin at three different locations in the mouse. The angiogenic response to the active substance was evaluated in comparison with placebo pellets. […] Median values and interquartile range is shown.
The ability to detect anti-angiogenic properties of therapeutic agents in these preparations was tested in the same technical settings by comparing treated versus untreated animals.
FIGS. 3A and 3B show the anti-angiogenic activity after treatment with TNP-470 (7 mg/kg q.d.x7, n=13). […] LDF recordings were performed on day 6, whereas NIRS recordings were performed on day 7 after implantation. Median values and interquartile range is shown.

[3] = test system: U87 and MLL tumor lines; assay: tumor growth, NIRS recordings and Chalkley counts during continuous anti-angiogenic treatment; type: in vivo, nude mice
Excerpt: The relationship between non-invasive measures of tumor hemoglobin concentration by NIRS and estimates of vessel density by Chalkley counts was examined in seven tumor lines (gliomas: U87, U118, U373; Small Cell Lung Cancer (SCLC): 54A, 54B, DMS79; rat prostate cancer: MLL) on the hind leg of nude mice. Chalkley counts were obtained from CD31 immunostained cryosections. The NIRS absorbance increased with the tumor size until a tumor line specific plateau was reached from tumor sizes of 100-150 mm^3.
We also evaluated the correlation between tumor size and NIRS recordings during untreated growth for all seven tumor lines, and during continuous anti-angiogenic treatment with TNP-470 for two tumor lines, U87 and MLL.

[4] = test system: angiogenic response; assay: angiogenic response to bFGF slow release pellet implanted under the skin, LDF and NIRS recordings; type: in vivo, mouse; details: pellet with 100 micrograms bFGF vs placebo pellets, p<0.05 vs placebo, p<0.001 vs controls
Description: as §1, §2

[5] = treated vs untreated tumors of similar size, U87 and MLL

Row | Compound | LDF [1] [%] | tumor blood perfusion estimated by LDF [1] | hemoglobin concentration [1] | NIRS* [1] | pO2 after treatment median [1] | pO2 after treatment % < 5 mm Hg [1] [%] | also measured
1 | Cc1ccc2c(=O)c3cccc(CC(=O)O)c3oc2c1C [DMX-AA] | −74 | decrease in perfusion | unchanged hemoglobin concentration | +1% | 2.8 | 66 | 
2 | O=C(O)Cc1cccc2c(=O)cc(-c3ccccc3)oc12 [FAA] | −34 | decrease in perfusion | unchanged hemoglobin concentration | +6% | 1.5 | 69 | 
3 | NNc1nncc2ccccc12 [HDZ, Hydralazine] | −93 |  |  | +36% | 1.9 | 85 | 
4 | CO[C@@H]1[C@H](OC(=O)NC(=O)CCl)CC[C@]2(CO2)[C@H]1[C@@]1(C)O[C@@H]1CC=C(C)C [TNP-470] |  |  |  |  |  |  | LDF recordings ([2]; compared to untreated bFGF stimulated animals, day 6, TNP-470 7 mg/kg q.d.x7 (p<0.05), dexamethasone 10 mg/kg q.d.x7 (p<0.001)): significantly lower; NIRS recordings ([2]; compared to untreated bFGF stimulated animals, day 7, TNP-470 7 mg/kg q.d.x7 (p<0.05), dexamethasone 10 mg/kg q.d.x7 (p<0.001)): significantly lower; anti-angiogenic activity ([2]; treated versus untreated animals): Significant anti-angiogenic activity; onset of tumor growth and the growth rate ([3]; continuous treatment, U87 and MLL tumors): significantly retarded; Chalkley counts [3, 5]: significantly lower; final NIRS recordings [3, 5]: significantly lower
5 | basic fibroblast growth factor [bFGF] |  |  |  |  |  |  | LDF recordings ([4]; day 6 after implantation): significantly higher than placebo; NIRS recordings ([4]; day 7 after implantation): significantly higher than placebo
